Test results: PubChem BioAssay (NCI)
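The compound was tested at five concentrations on cells cultured in 96-well plates, with a 48-hour exposure period. Here, GI50 denotes the concentration required for 50% inhibition of growth. At the TGI there is no net growth.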

Legend:
Experiment in all cases: inhibition of tumour cell growth, NCI panel, 48 h
SK-MEL-2 melanoma = system: SK-MEL-2 melanoma
NCI-H522 lung = system: NCI-H522 lung
TK-10 renal = system: TK-10 renal
K-562 leukemia = system: K-562 leukemia
IGROV1 ovarian = system: IGROV1 ovarian
HCC-2998 colon = system: HCC-2998 colon
RXF 393 renal = system: RXF 393 renal
CCRF-CEM leukemia = system: CCRF-CEM leukemia
SNB-75 CNS = system: SNB-75 CNS
NCI/ADR-RES ovarian = system: NCI/ADR-RES ovarian
HS 578T breast = system: HS 578T breast
BT-549 breast = system: BT-549 breast

| Structure (SMILES) | GI50 (SK-MEL-2 melanoma) [µM] | TGI (SK-MEL-2 melanoma) [µM] | GI50 (NCI-H522 lung) [µM] | TGI (NCI-H522 lung) [µM] | TGI (TK-10 renal) [µM] | GI50 (K-562 leukemia) [µM] | TGI (K-562 leukemia) [µM] | TGI (IGROV1 ovarian) [µM] | GI50 (HCC-2998 colon) [µM] | TGI (HCC-2998 colon) [µM] | TGI (RXF 393 renal) [µM] | GI50 (CCRF-CEM leukemia) [µM] | TGI (CCRF-CEM leukemia) [µM] | GI50 (SNB-75 CNS) [µM] | TGI (SNB-75 CNS) [µM] | TGI (NCI/ADR-RES ovarian) [µM] | TGI (HS 578T breast) [µM] | TGI (BT-549 breast) [µM] |
| --- | --- | --- | --- | --- | --- | --- | --- | --- | --- | --- | --- | --- | --- | --- | --- | --- | --- | --- |
| O=C1OCc2c1cc1ccc(O)c(OC3OC(CO)C(O)C(O)C3O)c1c2-c1ccc2c(c1)OCO2 (stereo unspecified) | 33.5 | > 100 | 22.6 | 59.9 | > 100 | 39.5 | > 100 | > 100 | 38.2 | > 100 | > 100 | 34.9 | > 100 | 55.2 | > 100 | – | – | – |
| Cc1nc(-c2ccc([N+](=O)[O-])cc2)cn2c1nc1ccccc12 | – | 69.2 | – | – | > 100 | – | > 100 | > 100 | – | – | > 100 | – | > 100 | – | 69 | > 100 | > 100 | > 100 |
| CC(C)(C)c1ccc2c(c1)CNCCNCc1cc(C(C)(C)C)ccc1OCC1(CO2)COc2ccc(C(C)(C)C)cc2CNCCNCc2cc(C(C)(C)C)ccc2OC1 | – | 2.89 | – | 0.421 | 3.32 | – | – | 2.5 | – | 0.786 | – | – | 0.68 | – | 2.96 | 3.07 | – | – |
| COc1ccc(-n2c(=O)c3[nH]cnc3n(-c3ccc(OC)cc3)c2=S)cc1 | – | > 100 | – | > 100 | > 100 | – | > 100 | > 100 | – | > 100 | > 100 | – | > 100 | – | > 100 | > 100 | – | > 100 |
| c1ccc2c(c1)OC(N1CCCC1)c1cnc(N3CCCC3)nc1-2 (stereo unspecified) | – | – | – | – | > 100 | – | > 100 | – | – | – | 47.8 | – | 67.3 | – | 57.1 | – | 89.7 | 60.9 |
| CC(O[Si](c1ccccc1)(c1ccccc1)C(C)(C)C)[C@H](NC(=O)OC(C)(C)C)C(=O)O[Si](c1ccccc1)(c1ccccc1)C(C)(C)C (stereo partly specified) | – | – | – | – | 31.1 | – | 40.6 | 31.9 | – | 34.7 | 26.9 | – | 76.6 | – | 29 | 29 | 44.4 | – |
| COC(=O)CC(=O)C[P+](c1ccccc1)(c1ccccc1)c1ccccc1 | – | > 218 | – | 86.8 | > 218 | – | > 218 | > 218 | – | > 218 | > 218 | – | > 218 | – | – | – | – | – |
| COc1ccccc1N/C(=C\C(=O)C(=O)NC12CC3CC(CC(C3)C1)C2)c1ccccc1 | – | > 10 | – | > 10 | > 10 | – | > 10 | > 10 | – | > 10 | > 10 | – | > 10 | – | > 10 | > 10 | > 10 | – |
| CC(C)Sc1nc(C#N)cc2c1CCCC2 | – | 63.2 | – | 78.4 | > 100 | – | > 100 | > 100 | – | > 100 | 87.9 | – | 55.8 | – | > 100 | > 100 | – | > 100 |
| CN1C(=O)N(c2ccccc2)C2(CCN(CC3COc4ccccc4O3)CC2)C1=O (stereo unspecified) | – | > 100 | – | > 100 | > 100 | – | > 100 | > 100 | – | > 100 | > 100 | – | > 100 | – | – | > 100 | > 100 | – |
| O=C(Nc1ccc(Br)cc1)c1c(-c2ccccc2)c2ccc(O)cc2oc1=O | – | > 10 | – | > 10 | > 10 | – | > 10 | > 10 | – | > 10 | > 10 | – | > 10 | – | > 10 | > 10 | > 10 | – |
